# Measurements as given in PubChem BioAssay (NCI).
# Several values for one entry are separate records, joined by “and”; a condition that tells them apart may be missing. Equal values may be shown once.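 Where inhibition never reached the appropriate level, the endpoint shown equals the highest concentration tested. Otherwise, values were interpolated linearly from a five-concentration, 48-hour dose response in 96-well plates. TGI marks complete inhibition of growth.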
# Tests used:
# Assay in all cases: inhibition of tumour cell growth, NCI panel, 48 h
# NCI-H23 lung = test system: NCI-H23 lung
# K-562 leukemia = test system: K-562 leukemia
# TK-10 renal = test system: TK-10 renal
# OVCAR-5 ovarian = test system: OVCAR-5 ovarian
# SN12C renal = test system: SN12C renal
# ACHN renal = test system: ACHN renal
Structure (SMILES),TGI (NCI-H23 lung) [µM],TGI (K-562 leukemia) [µM],TGI (TK-10 renal) [µM],TGI (OVCAR-5 ovarian),TGI (SN12C renal) [µM],TGI (ACHN renal)
COc1cc(N(CCC#N)CCC#N)ccc1/C(N=Nc1cccc(C)c1)=N\NC(=O)c1ccc(C)cc1,> 100,> 100,> 100,> 100 µM,> 100,63 µM
CC(=O)NC1=CC(=O)C=C(Cl)C1=O,> 100,93.6,> 100,> 100 µM,> 100,> 100 µM
O=C1Cc2c([nH]c3cc(Br)ccc23)-c2ccccc2N1,> 100,> 100,87.3,52.7 µM,76.4,64.7 µM
CC1(C)O[C@@H](CP(c2ccc3ccccc3c2)c2ccc3ccccc3c2)[C@H](CP(c2ccc3ccccc3c2)c2ccc3ccccc3c2)O1,> 100,> 100,> 100,> 100 µM,> 100,> 100 µM
O=c1c2cc([N+](=O)[O-])cnc2sn1-c1ccc(Br)cc1,> 100,–,> 100,> 100 µM,> 100,> 100 µM
CC(=O)Nc1ccc2c3c(cc(O)c2c1)N(C(=O)CCCCCC(=O)Nc1ccc2c4c(cc(O)c2c1)N(C(=O)OC(C)(C)C)CC4CCl)CC3CCl (stereo not given),3.59,> 100,> 70.6,35.5 µM,> 38.3,> 100 µM
O=c1[nH]c(=S)c2[nH]c(=O)n(-c3ccccc3)c2[nH]1,> 100,> 100,> 100,> 100 µM,> 100,> 100 µM
O=C(CSCC(=O)N/N=C/c1ccncc1)N/N=C/c1ccncc1,> 100,> 100,> 100,> 100 µM,> 100,> 100 µM
COc1cccc(-c2cc(=O)c3cc(N4CCCC4)ccc3[nH]2)c1,0.0962,> 8.09,> 10,> 10 µM,> 10,> 10 µM
CC1CC/C(=C\c2ccc(F)cc2)C2=C1C(c1ccc(F)cc1)n1c(s/c(=C\c3ccc(Cl)cc3)c1=O)=N2 (stereo not given),–,> 100,> 100,> 100 µM,> 100,> 100 µM
Cc1c(C=C(C#N)C#N)c(=O)n(C)c(=O)n1C,> 100,> 100,> 100,> 100 µM,> 100,> 100 µM
Nc1ccc2c(c1)S(=O)(=O)c1cc(N)ccc1-2,> 100,> 100,> 100,> 100 µM,> 100,> 100 µM
Cc1cn(C2CC(O)C(Cn3nncc3Cn3ccc(=O)[nH]c3=O)O2)c(=O)[nH]c1=O (stereo not given),> 100,–,> 100,> 100 µM,> 100,> 100 µM
O=C(NC(Cc1ccccc1)P(=O)(O)c1ccccc1)OCc1ccccc1 (stereo not given),> 100,> 100,> 100,> 100 µM,> 100,> 100 µM
C1COCCOP2(N3CC3)=NP(N3CC3)(=NP(N3CC3)(N3CC3)=N2)OCCOCCO1 (stereo not given),> 100,> 100,> 100,> 100 µM,> 100,> 100 µM
Cc1ccc2c(c1)C/C(=C\c1ccccc1C(=O)O)C2=O,> 100,> 100,> 100,> 100 µM,> 100,> 100 µM
Cc1ccc(S(=O)(=O)NC(=O)NCC(=O)O)cc1,> 100,> 100,> 100,> 100 µM,> 100,> 100 µM
OCC1(CNc2cc(Cl)ncn2)CCC1,> 100,> 100,> 100,> 100 µM,> 100,> 100 µM
Cc1cccc2c(=O)c3c(O)cc4c(c3n(C)c12)C=CC(C)(C)O4,> 100,48,> 100,> 100 µM,> 100,> 100 µM
O=Cc1ccc2[nH]c(=O)oc2c1,> 100,> 100,> 100,> 100 µM,> 100,> 100 µM
CSc1nc(Cl)c2c(n1)Sc1nc3ccccc3n1N=C2,> 100,50,> 100,97.2 µM,> 100,58 µM

Structure (SMILES),TGI (NCI-H23 lung) [µM],TGI (K-562 leukemia) [µM],TGI (TK-10 renal) [µM],TGI (OVCAR-5 ovarian),TGI (SN12C renal) [µM],TGI (ACHN renal)
COc1ccc(-c2cc(-c3ccccc3)nc(N)n2)c(O)c1,> 100,> 22.9,> 100,> 100 µM,> 100,> 100 µM
NC(=O)N=Nc1c2ccccc2n2[nH]ccc12,> 100,> 100,> 100,> 100 µM,> 100,> 100 µM
Nc1c(O)c(C(=O)O)cc2ccccc12,65.3,85.9,> 100,41.2 µM,> 100,64.3 µM
COC(=O)C(=O)C(C(=O)C(=O)Nc1nc(=S)[nH][nH]1)c1nc2ccc([N+](=O)[O-])cc2[nH]c1=O (stereo not given),> 100,> 100,> 100,> 100 µM,> 100,> 100 µM
CC(C)(C)OC(=O)CC(NC(=O)OC(C)(C)C)C(=O)Oc1ccc([N+](=O)[O-])cc1 (stereo not given),> 100,> 100,> 100,> 100 µM,> 100,> 100 µM
CC1(C)N=C(N)N=C(N)N1CCCCc1ccccc1,> 100,> 100,> 100,> 100 µM,> 54.4,> 100 µM
COC(=O)/C=C/N1CC1,> 10,> 10,> 10,> 10 µM,> 10,> 10 µM
COc1cc(C2SC(N)=Nc3c2c(C)nn3C(=O)c2ccc(Cl)cc2)ccc1O (stereo not given),> 10,> 10,> 10,> 10 µM,> 10,> 10 µM
Fc1ccc(C(OCCN2CCC3CCC(C2)N3C/C=C/c2cccnc2)c2ccc(F)cc2)cc1 (stereo not given),26.5,–,24,26.8 µM,26.2,27.3 µM
CCOC(=O)/C=C1\C[C@H](NC(=O)OCc2ccccc2)C(=O)N1CC(=O)OCC,> 100,> 100,> 100,> 100 µM,> 100,> 100 µM
CC(C)C(=O)CP(=O)(O)O,> 100,> 100,> 100,> 100 µM,> 100,> 100 µM
NC(N)=N/N=C/c1c(-c2ccc(Cl)cc2)nc2n1CCS2,–,20,29.4,28.3 µM,29.5,27 µM
OCC(O)C(O)C(C=NNc1ncnc2ccc(Br)cc12)=NNc1ncnc2ccc(Br)cc12 (stereo not given),–,> 100,> 100,88 µM and > 100 µM,> 100,14.2 µM and > 100 µM
CCOC(=O)c1c(CN2CCOCC2)n(Cc2ccccc2)c2c1cc(O)c1nc(C)c(C)nc12,> 100,> 100,97.7,> 100 µM,> 100,> 100 µM
CCCC(=O)OC1=C(c2ccccc2)Sc2ccccc2-n2cccc21,> 10,> 10,> 10,–,> 10,–
O=C(N1CCN(c2ccccc2)CC1)N(C(=O)C1(c2ccc(Cl)cc2)CCCC1)S(=O)(=O)c1ccccc1,69.1,> 100,> 100,65.7 µM,94.6,45.6 µM
CC(C)[C@H]1NC(=O)[C@H]2N=C(O[C@@H]2C)[C@@H]2CCCN2C(=O)[C@H](Cc2ccccc2)NC(=O)[C@@H]2COC(=N2)[C@@H](Cc2ccccc2)NC(=O)[C@@H]2COC1=N2,> 100,> 100,> 100,> 100 µM,> 100,> 100 µM
CC(C)[Si](OC1=CCC[C@H]2NC(=O)[C@@H](Cc3ccc([N+](=O)[O-])cc3)[C@@]12C)(C(C)C)C(C)C,18.6,13.7,23.9,21.2 µM,3.8,4.28 µM
CC(=O)Oc1cc2c(n(C)c1=O)CCC2,> 100,> 100,> 100,> 100 µM,> 100,> 100 µM
Cc1cc2nc3c(C#N)c4c(c(Nc5ccc(Cl)cc5)n3c2cc1C)CCC4,57.2,–,40.9,36.3 µM,34.4,43.3 µM
N#C/C=C\c1ccc(-c2cc(C(F)(F)F)cc(C(F)(F)F)c2)o1,30.1,> 100,–,> 100 µM,> 100,> 100 µM

Structure (SMILES),TGI (NCI-H23 lung) [µM],TGI (K-562 leukemia) [µM],TGI (TK-10 renal) [µM],TGI (OVCAR-5 ovarian),TGI (SN12C renal) [µM],TGI (ACHN renal)
COc1ccc(/C=C2\CC3C4CC=C5C[C@@H](O)CC[C@]5(C)C4CC[C@]3(C)C2=O)cc1OC (stereo not given in full),> 100,> 100,> 100,> 100 µM,> 100,> 100 µM
CCN(CC)c1ccc2cc(-c3csc(-c4ccc(N(C)C)cc4)n3)c(=O)oc2c1,–,> 100,> 100,> 100 µM,> 100,> 100 µM
COc1cc2c3c4c1OCc1c5c(cc(c1-4)CC3[N+](C)(C)CC2)OCO5 (stereo not given),> 100,> 100,> 100,> 100 µM,39.4,> 100 µM
Cc1cc(C)nc(NS(=O)(=O)c2ccc(NC(=O)c3ccc4nc5ccccc5c(Nc5ccc(S(=O)(=O)Nc6nc(C)cc(C)n6)cc5)c4c3)cc2)n1,> 100,> 100,> 100,> 100 µM,> 100,> 100 µM
S=c1sscc1N1CCSc2ssc(=S)c21,69.8,> 100,81.8,> 100 µM,> 100,> 100 µM
NC(=O)N/N=C/c1ccccc1O,> 100,> 100,> 100,–,–,> 100 µM
Cc1ccc(NCc2nnc3c(-c4ccccc4)nc4ccccc4n23)cc1,–,> 100,> 100,> 100 µM,> 100,> 100 µM
C/C(CC(O)(C(F)(F)F)C(F)(F)F)=N/Nc1ccc([N+](=O)[O-])cc1[N+](=O)[O-],7.27,9.56,> 10,–,> 10,> 10 µM
O=c1ccc2nc3ccc(O)cc3oc-2c1,14.3,34.7,> 100,> 100 µM,> 100,> 100 µM
CCOC(=O)c1c[nH]c2cc3c(cc2c1=O)CCS3,> 100,> 100,> 100,> 100 µM,> 100,> 100 µM
N=c1oc2ccc(Cl)cc2cc1C(=O)NC1CCCCC1,> 100,> 100,–,> 100 µM,> 100,> 100 µM
NNC(=O)CSc1nnc(CCCCCCCCc2nnc(SCC(=O)NN)o2)o1,> 100,> 100,> 100,> 100 µM,> 100,> 100 µM
N#CCCN(CCC#N)c1ccc(/C=C2\N=C(c3ccccc3)N(c3ccccc3)C2=O)cc1,–,> 100,> 100,> 100 µM,> 100,> 100 µM
C[Si](C)(C)C#CCOC=C1CC1,> 100,> 100,> 100,> 100 µM,> 100,> 100 µM
Cn1c2c(c3c(=O)[nH]ncc31)CCCc1ccccc1-2,> 100,> 100,> 100,> 100 µM,66.3,98.9 µM
COc1cc(C2S/C(=C/c3ccccc3)C(=O)N2c2ccccn2)cc(OC)c1OC (stereo not given),34,> 100,> 100,41.2 µM,33.6,29.8 µM
COc1cc(OC)cc(Oc2nc3c(N)cc(C(F)(F)F)cc3nc2-c2ccccc2)c1,> 100,31.4,> 100,–,–,> 100 µM
Cc1cccc(/C=C2\CCCCCC2=O)c1,> 100,> 100,> 100,> 100 µM,> 100,> 100 µM
CC(=O)Oc1ccc2c3c1[C@@H]1O[C@@H]1c1cccc(c1-3)[C@@H]1O[C@H]21,–,> 100,6.12,3.42 µM,–,3.74 µM
CN1C(=O)C(O)C[C@@H]1c1ccc(F)cc1 (stereo not given in full),> 100,–,> 100,> 100 µM,> 100,> 100 µM
